In publication PMC12993615 (The journal of pain, 2024):

Tested on: PAG, DRG and PFC transcriptomes
Experiment: Transcriptomic analysis (RNA-seq) of terminal tissues, OIPN prevention study
Assay type: in vivo, male Sprague Dawley rats
Description: Pain measurements were made on Days 5/6 (when neuropathy has normally developed) and at the end of the study. […] Terminal plasma samples were taken for bioanalysis and proteomics (Somalogic). Brain regions involved in pain processing, that is, prefrontal cortex (PFC), periaqueductal grey (PAG), whole spinal cords (SC), and L4-L6 dorsal root ganglia, were collected for lipidomic and genomic (Genewiz, China) analyses. Sequencing (Illumnia NovoSeq) was done at Genewiz (Shanghai, China). Sequence reads were trimmed using Trimmomatic (v.0.36). Reads were then aligned to the R. norvegicus Rnor6.0 reference genome (https://www.ncbi.nlm.nih.gov/assembly/GCF_000001895.5/) using the STAR aligner (v.2.5.2b) and unique gene hit counts were calculated using featureCounts from the Subread package (v.1.5.2). Differentially expressed genes were determined using limma 3.46.0. […] Visualisation was done using the EnhancedVolcano (1.7.10) package in R. Gene set enrichment analysis was carried out using the gprofiler2 package in R.

COc1ccccc1[C@@H]1[C@H](C(=O)O)[C@@H](c2ccccc2OC)[C@H]1C(=O)OC1Cc2ccccc2C1 [ART26.12, (+)–3-Indan-2-yloxycarbonyl-2,4-bis(2-methoxyphenyl)cyclobutanecarboxylic acid]
transcriptomic changes in PFC: No significant changes
transcriptomic changes in DRG (P < .05, FC > 1.5): only glycine decarboxylase being significantly upregulated
number of significantly different genes in PAG (P < .05, log2FC > .58): 20 genes
